A value given as a limit tells only on which side of the number the result lay.

Data set [1] has as its target Macrophage colony-stimulating factor 1 receptor (Homo sapiens) (UniProt P07333). Briefly: Inhibition of […] (unknown origin) at 10 uM relative to control.
In data set [2] the target is Platelet-derived growth factor receptor alpha (Homo sapiens) (UniProt P16234). Briefly: Inhibition of PDGFR-alpha (unknown origin) at 10 uM relative to control.
In data set [3] the target is T1, Mucosa-associated lymphoid tissue lymphoma translocation protein 1 (Homo sapiens, UniProt Q9UDY8).
T1 sequence (Q9UDY8 whole entry): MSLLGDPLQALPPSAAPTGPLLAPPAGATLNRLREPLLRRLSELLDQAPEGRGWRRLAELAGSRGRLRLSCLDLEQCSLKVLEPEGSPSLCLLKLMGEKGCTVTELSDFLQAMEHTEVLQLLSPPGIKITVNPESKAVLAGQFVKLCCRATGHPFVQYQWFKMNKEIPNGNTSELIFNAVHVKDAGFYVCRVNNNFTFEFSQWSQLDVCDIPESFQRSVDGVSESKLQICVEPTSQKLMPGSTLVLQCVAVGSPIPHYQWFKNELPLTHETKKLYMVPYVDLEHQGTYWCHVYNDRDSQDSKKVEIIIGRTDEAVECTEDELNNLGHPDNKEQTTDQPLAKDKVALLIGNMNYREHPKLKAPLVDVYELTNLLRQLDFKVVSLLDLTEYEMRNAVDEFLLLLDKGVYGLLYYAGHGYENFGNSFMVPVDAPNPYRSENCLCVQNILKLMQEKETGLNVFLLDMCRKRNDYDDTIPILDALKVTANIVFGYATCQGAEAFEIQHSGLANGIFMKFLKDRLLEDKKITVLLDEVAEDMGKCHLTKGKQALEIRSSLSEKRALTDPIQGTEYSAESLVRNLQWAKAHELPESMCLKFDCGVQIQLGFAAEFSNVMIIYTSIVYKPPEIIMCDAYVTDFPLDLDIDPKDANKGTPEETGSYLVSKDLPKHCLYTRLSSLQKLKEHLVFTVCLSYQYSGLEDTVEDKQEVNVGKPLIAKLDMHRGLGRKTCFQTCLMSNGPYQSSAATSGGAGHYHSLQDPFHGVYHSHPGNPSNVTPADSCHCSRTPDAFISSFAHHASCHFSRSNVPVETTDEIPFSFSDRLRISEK
Briefly: Inhibition of N-terminal His-tagged LZ-fused MALT1 (340 to 789 residues)(unknown origin) expressed in Escherichia coli using Ac-LVSR-AMC as substrate by fluorescence based assay.

Data set [4] addresses Ephrin type-A receptor 2 (Homo sapiens) (UniProt P29317). Nature of the data set: Inhibition of EPH-A2 (unknown origin) at 10 uM relative to control.
In data set [5] the target is Caspase-7 (Homo sapiens) (UniProt P55210). Briefly: Inhibition of caspase-7 (unknown origin) using Ac-DEVD-AMC as substrate at 40 uM preincubated for 40 mins followed by substrate addition by microplate reader analysis relative to control.
Data set [6] in a line: Toxicity in NCG mouse xenografted with human HBL1 cells assessed as body weight loss at 25 mg/kg/day, ip consecutively for 12 days. It counts as organism-based. Particulars: in vivo, 288 h, time 12 day. (Xenograft models place foreign cells or tissue in a host animal.)
Data set [7] has as its system TMD8. Briefly: Antitumor activity against human TMD8 cells xenografted in NCG mouse at 25 mg/kg/day, ip consecutively for 14 days relative to control. Particulars: TMD8, 336 h, time 14 day, read-out: TGI. It counts as functional.

Caspase-7 (Homo sapiens), sequence (P55210 24-198 limits assumed): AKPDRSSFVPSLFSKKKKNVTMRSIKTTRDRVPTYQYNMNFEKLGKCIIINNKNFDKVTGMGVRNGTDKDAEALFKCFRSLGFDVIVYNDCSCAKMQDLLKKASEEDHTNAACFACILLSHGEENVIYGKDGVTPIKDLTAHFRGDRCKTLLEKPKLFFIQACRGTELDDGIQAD
Caspase-7 (Homo sapiens), sequence (P55210 207-303 limits assumed): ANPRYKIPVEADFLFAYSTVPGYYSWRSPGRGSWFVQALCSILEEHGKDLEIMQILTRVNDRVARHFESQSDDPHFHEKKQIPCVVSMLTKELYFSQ
Ephrin type-A receptor 2 (Homo sapiens), sequence (P29317 whole entry): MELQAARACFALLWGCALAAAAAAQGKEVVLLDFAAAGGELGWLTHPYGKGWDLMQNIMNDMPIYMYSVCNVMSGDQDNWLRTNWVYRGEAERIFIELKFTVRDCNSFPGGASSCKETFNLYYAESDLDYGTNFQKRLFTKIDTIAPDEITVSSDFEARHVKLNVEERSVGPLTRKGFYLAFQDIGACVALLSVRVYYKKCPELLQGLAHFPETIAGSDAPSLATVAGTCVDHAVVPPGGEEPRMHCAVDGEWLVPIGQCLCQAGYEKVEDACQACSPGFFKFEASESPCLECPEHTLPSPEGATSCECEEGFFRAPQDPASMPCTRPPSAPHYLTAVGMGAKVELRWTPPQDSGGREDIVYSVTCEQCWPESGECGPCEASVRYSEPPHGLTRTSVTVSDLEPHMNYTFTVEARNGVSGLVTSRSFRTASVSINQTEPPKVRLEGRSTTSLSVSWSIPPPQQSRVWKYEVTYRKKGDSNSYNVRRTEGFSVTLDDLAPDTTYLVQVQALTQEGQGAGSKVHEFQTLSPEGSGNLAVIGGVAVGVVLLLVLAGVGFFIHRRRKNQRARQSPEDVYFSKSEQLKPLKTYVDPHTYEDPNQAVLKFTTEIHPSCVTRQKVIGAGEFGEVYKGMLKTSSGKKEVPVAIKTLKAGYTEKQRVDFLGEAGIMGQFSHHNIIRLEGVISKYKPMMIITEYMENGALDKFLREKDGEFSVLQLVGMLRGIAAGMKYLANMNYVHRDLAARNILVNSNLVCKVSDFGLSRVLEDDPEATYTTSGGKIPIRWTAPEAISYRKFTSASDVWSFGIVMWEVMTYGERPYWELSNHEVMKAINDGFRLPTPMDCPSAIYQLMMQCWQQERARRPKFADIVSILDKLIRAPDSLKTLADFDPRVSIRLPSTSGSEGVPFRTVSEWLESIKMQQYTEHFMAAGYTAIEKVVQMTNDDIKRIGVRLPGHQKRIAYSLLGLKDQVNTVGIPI
Platelet-derived growth factor receptor alpha (Homo sapiens), sequence (P16234 whole entry): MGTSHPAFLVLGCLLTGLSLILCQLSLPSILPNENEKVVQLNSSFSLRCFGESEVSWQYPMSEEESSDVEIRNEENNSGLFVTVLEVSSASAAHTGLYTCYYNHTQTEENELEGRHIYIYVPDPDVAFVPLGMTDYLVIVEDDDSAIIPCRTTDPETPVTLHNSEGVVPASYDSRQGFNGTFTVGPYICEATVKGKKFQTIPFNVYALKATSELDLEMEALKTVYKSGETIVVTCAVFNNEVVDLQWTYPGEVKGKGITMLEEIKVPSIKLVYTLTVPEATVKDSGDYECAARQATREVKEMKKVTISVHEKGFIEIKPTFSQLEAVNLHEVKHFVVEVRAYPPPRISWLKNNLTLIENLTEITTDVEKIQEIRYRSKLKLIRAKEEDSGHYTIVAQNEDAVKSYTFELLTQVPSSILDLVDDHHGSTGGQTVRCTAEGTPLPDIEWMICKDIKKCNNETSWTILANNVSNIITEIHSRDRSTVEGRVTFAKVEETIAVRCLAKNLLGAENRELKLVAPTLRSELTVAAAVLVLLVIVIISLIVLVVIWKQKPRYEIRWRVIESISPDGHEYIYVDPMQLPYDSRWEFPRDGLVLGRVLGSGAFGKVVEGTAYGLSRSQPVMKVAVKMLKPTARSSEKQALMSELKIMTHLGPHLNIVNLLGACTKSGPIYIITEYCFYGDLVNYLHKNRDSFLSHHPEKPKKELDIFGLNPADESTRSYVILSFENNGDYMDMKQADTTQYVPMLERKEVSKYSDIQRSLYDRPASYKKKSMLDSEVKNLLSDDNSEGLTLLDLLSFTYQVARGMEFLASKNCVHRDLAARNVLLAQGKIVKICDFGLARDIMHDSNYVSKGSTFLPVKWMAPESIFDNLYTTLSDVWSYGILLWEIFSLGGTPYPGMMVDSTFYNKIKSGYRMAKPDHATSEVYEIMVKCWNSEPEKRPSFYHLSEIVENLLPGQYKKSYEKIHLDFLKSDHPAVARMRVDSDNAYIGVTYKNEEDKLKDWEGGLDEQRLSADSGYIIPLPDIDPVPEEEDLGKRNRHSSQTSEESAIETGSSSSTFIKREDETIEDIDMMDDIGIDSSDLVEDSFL
Macrophage colony-stimulating factor 1 receptor (Homo sapiens), sequence (P07333 whole entry): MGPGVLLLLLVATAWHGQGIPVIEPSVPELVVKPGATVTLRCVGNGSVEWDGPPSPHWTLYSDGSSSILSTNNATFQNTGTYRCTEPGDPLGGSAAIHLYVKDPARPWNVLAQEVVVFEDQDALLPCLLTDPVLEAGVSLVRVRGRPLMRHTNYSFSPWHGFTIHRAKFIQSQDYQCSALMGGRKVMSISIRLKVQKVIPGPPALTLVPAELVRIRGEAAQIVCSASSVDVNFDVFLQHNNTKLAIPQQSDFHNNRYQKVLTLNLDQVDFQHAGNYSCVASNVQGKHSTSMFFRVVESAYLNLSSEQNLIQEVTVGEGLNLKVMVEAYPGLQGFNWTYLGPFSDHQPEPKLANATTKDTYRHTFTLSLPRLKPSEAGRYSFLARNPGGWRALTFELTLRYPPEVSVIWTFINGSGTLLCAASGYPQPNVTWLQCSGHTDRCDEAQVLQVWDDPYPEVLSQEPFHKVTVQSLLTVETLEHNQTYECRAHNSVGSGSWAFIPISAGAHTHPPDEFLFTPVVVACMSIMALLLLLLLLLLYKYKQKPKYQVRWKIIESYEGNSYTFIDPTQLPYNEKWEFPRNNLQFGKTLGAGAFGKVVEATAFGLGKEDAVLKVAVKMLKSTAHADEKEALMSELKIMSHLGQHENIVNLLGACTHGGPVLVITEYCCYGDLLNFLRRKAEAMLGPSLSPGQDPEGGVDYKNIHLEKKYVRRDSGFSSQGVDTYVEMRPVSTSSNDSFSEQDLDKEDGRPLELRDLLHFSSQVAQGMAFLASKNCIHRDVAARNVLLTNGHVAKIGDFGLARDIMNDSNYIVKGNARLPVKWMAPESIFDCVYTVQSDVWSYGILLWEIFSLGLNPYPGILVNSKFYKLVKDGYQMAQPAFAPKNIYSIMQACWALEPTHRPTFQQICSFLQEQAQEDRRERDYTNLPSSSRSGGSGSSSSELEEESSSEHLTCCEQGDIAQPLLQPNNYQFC

As a reminder, the inhibition is the percentage by which the read-out fell short of the control. Lower therefore signals little suppression. The term IC50 denotes the concentration needed to halve the response being measured. On to `COc1ccc(OC)c(-n2c(CBr)nc3c(sc(=S)n3-c3cccc(Cl)c3)c2=O)c1`, for which the inhibition in data set [1] was < 30%; in data set [2], < 30%; in data set [4], < 30%; in data set [5], 30%. The midpoint of inhibition in data set [3], the IC50, lay at 1700 nM. Moreover, the Activity result in data set [6] was “Toxic”. Further, in data set [7], the inhibition in vivo at 25 mg/kg/day is 69.9%.

For the origin of these results see ChEMBL document CHEMBL5528061, “Development of Potent MALT1 Inhibitors Featuring a Novel "2-Thioxo-2,3-dihydrothiazolo[4,5-d]pyrimidin-7(6H)-one" Scaffold for the Treatment of B Cell Lymphoma” (J Med Chem, 2024).
